Measurements taken from ChEMBL document CHEMBL5724914, “Linking interpersonal differences in gut microbiota composition and drug biotransformation activity” (2024).

Columns and labels:
[1] = human gut metagenome, 24 h, 2 µM
[2] = (§1) The drug is tested on WLS-090 corresponding to human gut metagenome with ENA study accession number: PRJEB37062 and ENA sample accession number: ERS12561753 for biotransformation under anaerobic condition. The drug concentrations were measured over 9 timepoints collected between 0 and 24 hours of incubation by liquid-chromatography-coupled mass spectrometry (LC–MS); conditions: 2 µM
[3] = as §1, with “WLS-027” for “WLS-090”, “ERS12561744” for “ERS12561753”; conditions: 2 µM
[4] = as §1, with “Z-009” for “WLS-090”, “pig” for “human”, “ERS12561809” for “ERS12561753”; conditions: 2 µM
[5] = human gut metagenome, 24 h, 2 µM; remark: listed apart in the source
[6] = human gut metagenome, 24 h, 2 µM; remark: listed apart in the source
[7] = as §1, with “Z-002” for “WLS-090”, “rabbit” for “human”, “ERS12561802” for “ERS12561753”; conditions: 2 µM
[8] = as §1, with “Z-005” for “WLS-090”, “to” for “to human gut”, “ERS12561805” for “ERS12561753”; conditions: 2 µM
[9] = as §1, with “WLS-052” for “WLS-090”, “ERS12561747” for “ERS12561753”; conditions: 2 µM
[10] = human gut metagenome, 24 h, 2 µM; remark: listed apart in the source
[11] = as §1, with “WLS-007” for “WLS-090”, “ERS12561742” for “ERS12561753”; conditions: 2 µM
[12] = as §1, with “Z-008” for “WLS-090”, “to” for “to human gut”, “ERS12561808” for “ERS12561753”; conditions: 2 µM
[13] = human gut metagenome, 24 h, 2 µM; remark: listed apart in the source
[14] = as §1, with “WLS-073” for “WLS-090”, “ERS12561749” for “ERS12561753”; conditions: 2 µM
[15] = human gut metagenome, 24 h, 2 µM; remark: listed apart in the source
[16] = human gut metagenome, 24 h, 2 µM; remark: listed apart in the source
[17] = as §1, with “WLS-370” for “WLS-090”, “ERS12561793” for “ERS12561753”; conditions: 2 µM
[18] = human gut metagenome, 24 h, 2 µM; remark: listed apart in the source
[19] = as §1, with “Z-006” for “WLS-090”, “mouse” for “human”, “ERS12561806” for “ERS12561753”; conditions: 2 µM
[20] = as §1, with “WLS-039” for “WLS-090”, “ERS12561746” for “ERS12561753”; conditions: 2 µM
Also: call rule not given here.

| Structure (SMILES) | Bacterial Biotransformation [1] | Bacterial Biotransformation [2] | Bacterial Biotransformation [3] | Bacterial Biotransformation [4] | Bacterial Biotransformation [5] | Bacterial Biotransformation [6] | Bacterial Biotransformation [7] | Bacterial Biotransformation [8] | Bacterial Biotransformation [9] | Bacterial Biotransformation [10] | Bacterial Biotransformation [11] | Bacterial Biotransformation [12] | Bacterial Biotransformation [13] | Bacterial Biotransformation [14] | Bacterial Biotransformation [15] | Bacterial Biotransformation [16] | Bacterial Biotransformation [17] | Bacterial Biotransformation [18] | Bacterial Biotransformation [19] | Bacterial Biotransformation [20] |
| --- | --- | --- | --- | --- | --- | --- | --- | --- | --- | --- | --- | --- | --- | --- | --- | --- | --- | --- | --- | --- |
| OC(c1cc(C(F)(F)F)nc2c(C(F)(F)F)cccc12)C1CCCCN1 (stereo not given) [MEFLOQUINE] | Compound NOT metabolized | Compound metabolized | Compound metabolized | Compound metabolized | Compound metabolized | Compound metabolized | Compound metabolized | Compound NOT metabolized | Compound metabolized | Compound metabolized | Compound NOT metabolized | Compound NOT metabolized | Compound NOT metabolized | Compound metabolized | Compound metabolized | Compound NOT metabolized | Compound metabolized | Compound metabolized | Compound NOT metabolized | Compound metabolized |
| CC(=O)O[C@]1(C(C)=O)CC[C@H]2[C@@H]3C=C(C)C4=CC(=O)CC[C@]4(C)[C@H]3CC[C@@]21C [MEGESTROL ACETATE] | Compound metabolized | Compound metabolized | Compound metabolized | Compound metabolized | Compound metabolized | Compound metabolized | Compound metabolized | Compound metabolized | Compound metabolized | Compound metabolized | Compound metabolized | Compound NOT metabolized | Compound metabolized | Compound metabolized | Compound metabolized | Compound metabolized | Compound metabolized | Compound NOT metabolized | Compound metabolized | Compound metabolized |
| CC12CC3CC(C)(C1)CC(N)(C3)C2 [MEMANTINE] | Compound NOT metabolized | Compound metabolized | Compound NOT metabolized | Compound NOT metabolized | Compound NOT metabolized | Compound NOT metabolized | Compound NOT metabolized | Compound NOT metabolized | Compound NOT metabolized | Compound NOT metabolized | Compound NOT metabolized | Compound NOT metabolized | Compound NOT metabolized | Compound NOT metabolized | Compound NOT metabolized | Compound NOT metabolized | Compound NOT metabolized | Compound NOT metabolized | Compound NOT metabolized | Compound metabolized |
| Cc1cc(C)cc(OCC2CNC(=O)O2)c1 (stereo not given) [METAXALONE] | Compound metabolized | Compound metabolized | Compound metabolized | Compound NOT metabolized | Compound metabolized | Compound NOT metabolized | Compound NOT metabolized | Compound NOT metabolized | Compound metabolized | Compound metabolized | Compound metabolized | Compound NOT metabolized | Compound NOT metabolized | Compound NOT metabolized | Compound metabolized | Compound metabolized | Compound metabolized | Compound NOT metabolized | Compound NOT metabolized | Compound metabolized |
| COC(=O)C(c1ccccc1)C1CCCCN1 (stereo not given) [METHYLPHENIDATE] | Compound NOT metabolized | Compound metabolized | Compound metabolized | Compound metabolized | Compound metabolized | Compound NOT metabolized | Compound metabolized | Compound NOT metabolized | Compound NOT metabolized | Compound metabolized | Compound NOT metabolized | Compound NOT metabolized | Compound NOT metabolized | Compound NOT metabolized | Compound NOT metabolized | Compound NOT metabolized | Compound NOT metabolized | Compound NOT metabolized | Compound NOT metabolized | Compound NOT metabolized |
| CN1CCN2c3ccccc3Cc3ccccc3C2C1 (stereo not given) [MIANSERIN] | Compound NOT metabolized | Compound metabolized | Compound NOT metabolized | Compound metabolized | Compound metabolized | Compound NOT metabolized | Compound metabolized | Compound NOT metabolized | Compound NOT metabolized | Compound NOT metabolized | Compound NOT metabolized | Compound NOT metabolized | Compound NOT metabolized | Compound NOT metabolized | Compound metabolized | Compound NOT metabolized | Compound NOT metabolized | Compound NOT metabolized | Compound NOT metabolized | Compound metabolized |
| CC#C[C@]1(O)CC[C@H]2[C@@H]3CCC4=CC(=O)CCC4=C3[C@@H](c3ccc(N(C)C)cc3)C[C@@]21C [MIFEPRISTONE] | Compound metabolized | Compound metabolized | Compound metabolized | Compound metabolized | Compound NOT metabolized | Compound metabolized | Compound metabolized | Compound metabolized | Compound metabolized | Compound metabolized | Compound metabolized | Compound metabolized | Compound NOT metabolized | Compound NOT metabolized | Compound NOT metabolized | Compound NOT metabolized | Compound NOT metabolized | Compound metabolized | Compound metabolized | Compound NOT metabolized |
| CC(C)(C)NCC(O)COc1cccc2c1CC(O)C(O)C2 (stereo not given) [NADOLOL] | Compound NOT metabolized | Compound metabolized | Compound NOT metabolized | Compound metabolized | Compound NOT metabolized | Compound metabolized | Compound metabolized | Compound NOT metabolized | Compound NOT metabolized | Compound metabolized | Compound NOT metabolized | Compound NOT metabolized | Compound NOT metabolized | Compound NOT metabolized | Compound NOT metabolized | Compound NOT metabolized | Compound NOT metabolized | Compound NOT metabolized | Compound NOT metabolized | Compound NOT metabolized |
